The values below are quoted from earlier work in patent US20130171093A1, “HEALING POWDER AND METHOD OF USE THEREOF” (priority 2006, published 2013).

The test system of series [1] is full thickness wounds in the backs of pigs. The settings on record: clean, non-infected pig wounds under Opsite.
Series [2] has as its system acute mediastinitis wounds. Conditions: 19 patients, wounds packed every 3 to 4 hours.

For `N=C(NCCCCCCNC(=N)NC(=N)Nc1ccc(Cl)cc1)NC(=N)Nc1ccc(Cl)cc1.O=C(O)[C@H](O)[C@@H](O)[C@H](O)[C@H](O)CO.O=C(O)[C@H](O)[C@@H](O)[C@H](O)[C@H](O)CO` [chlorhexidine gluconate 0.2%, chlorhexidine gluconate], in series [1], the “wound healing / granulation tissue formation versus wounds covered with Opsite alone” value is on record as “delayed healing”.
For `OC[C@H]1O[C@@](CO)(O[C@H]2O[C@H](CO)[C@@H](O)[C@H](O)[C@H]2O)[C@@H](O)[C@@H]1O` [granular sugar, sucrose], in series [2], the “debridement of the wound” value is recorded as “near complete debridement” and the “eradication of bacterial infection, average time of treatment” value is recorded as 7.6 days.
